Data published in patent US10344001B2, “Azolylacryloyl derivatives as therapeutic agents for sickle cell disease” (VIRGINIA COMMONWEALTH UNIVERSITY, priority 2015, dated 2019).

Tests used:
Hb in normal whole blood = target: T1, Hb in normal whole blood (Homo sapiens, UniProt P68871+P69905); experiment: Oxygen equilibrium curve (OEC) study in normal whole blood, multipoint tonometry; format: cell-based; conditions: hematocrit 20%, 1.5 h at 37° C.
T1 construct: Normal whole blood was collected from adult donors at the Virginia Commonwealth University; endogenous in cells; host or cells: erythrocytes in normal adult human whole blood (hematocrit 20%)
Description: (§1) De-identified, leftover EDTA venous blood samples from patients with SCD who visited The Children's Hospital of Philadelphia for routine clinic visits, were obtained after informed consent and used for antisickling study. Normal whole blood was collected from adult donors at the Virginia Commonwealth University after informed consent and used for oxygen equilibrium curve study. Hb was purified from discarded normal blood samples following published procedure and used for OEC study^34. The use of these human samples is in accordance with regulations of the IRB for Protection of Human Subjects.
The ability of the KAUS compounds to left-shift the OEC (stabilize the R-state and/or destabilize the T-state) and increase the oxygen affinity of Hb in normal whole blood or free human hemoglobin was determined by multipoint tonometry as previously reported^20. First, cell free normal human hemoglobin (1 mM) or normal whole blood (hematocrit of 20%) was incubated with 1 mM or 2 mM final test compound (KAUS-28, KAUS-29, KAUS-33, KAUS-38 or KAUS-39) for 1.5 h at 37° C. Following incubation, the mixture was equilibrated in a tonometer with oxygen tensions of 6, 20 and 60 mmHg for 10 min each, and pO2 (mmHg) and sO2 (%) values were measured thereafter using ABL 700 series automated blood gas analyzer (Radiometer America, Inc., Westlake, Ohio). The measured values of pO2 and sO2 at each oxygen tension level were then subjected to a non-linear regression analysis using the program Scientist (Micromath, Salt Lake City, Utah) to calculate P50 and the Hill coefficient (N) values. Time-dependent OEC studies (1 hr, 4 hr, 8 hr and 12 hr) were also performed for KAUS-28, KAUS-33, KAUS-38, and KAUS-39 at final compound concentration of 2 mM. ECA and the previously studied azolylacryloyl-carboxylate derivative, KAUS-15 were used as positive controls. Compounds were dissolved in DMSO to make 100-250 mM stock solutions, and DMSO was used in all control samples. All OEC studies were performed in duplicates.

[1] = target: T2, cell free normal human hemoglobin (Homo sapiens, UniProt P68871+P69905); experiment: Oxygen equilibrium curve (OEC) study with cell free hemoglobin, multipoint tonometry; format: biochemical; conditions: cell free normal human hemoglobin 1 mM; 1 mM or 2 mM compound
T2 construct: Hb was purified from discarded normal blood samples following published procedure and used for OEC study; from tissue; host or cells: discarded normal human blood samples
Description: as §1
The ability of the KAUS compounds to left-shift the OEC (stabilize the R-state and/or destabilize the T-state) and increase the oxygen affinity of Hb in normal whole blood or free human hemoglobin was determined by multipoint tonometry as previously reported^20. […] Following incubation, the mixture was equilibrated in a tonometer with oxygen tensions of 6, 20 and 60 mmHg for 10 min each, and pO2 (mmHg) and sO2 (%) values were measured thereafter using ABL 700 series automated blood gas analyzer (Radiometer America, Inc., Westlake, Ohio). The measured values of pO2 and sO2 at each oxygen tension level were then subjected to a non-linear regression analysis using the program Scientist (Micromath, Salt Lake City, Utah) to calculate P50 and the Hill coefficient (N) values. […]

[2] = tested on: SS cells (sickle red blood cells); experiment: RBC morphological antisickling study under hypoxic condition; format: cell-based, human; conditions: 2 mM compound, 1 hr under air, then 4% oxygen/96% nitrogen at 37° C. for 5 hrs; for inhibition at 2000 µM: Homo sapiens, Erythrocyte, read-out: Reduction (inhibition) of RBC sickling
Description: as §1
KAUS-38 and KAUS-39 at 2 mM concentrations were tested for their abilities to prevent RBC sickling under hypoxic condition following previously reported assay^20. Briefly SS cells were suspended in Hemox buffer (TCS Scientific Corp, Southampton, Pa.), pH 7.4, that contained 10 mM glucose and 0.2% bovine serum albumin. The solution was incubated under air in the absence (control) or presence of […] 2 mM concentration of test compound at 37° C. for 1 hr. Following, the suspension was incubated under hypoxic condition (4% oxygen/96% nitrogen) at 37° C. for 5 hrs. The suspension was fixed with 2% glutaraldehyde solution without exposure to air and then subjected to microscopic morphological analysis as previously reported […]

[3] = Reactivity toward free L-cysteine (UPLC-MS of compound and adduct); conditions: incubated with L-Cys for 3 hours; for Ratio of Cpd/Adduct (Adduct peak): share of L-cysteine adduct peak; for Ratio of Cpd/Adduct (Compound peak): share of unreacted compound peak; for Reactivity with L-Cys (adduct share): values in text
Description: The above synthesized KAUS compounds were expected to covalently bind to Hb through a Michael addition reaction with the βCys93 at the surface of the protein to effect their allosteric and antisickling activities. We therefore investigated L-Cys conjugates with KAUS-28, KAUS-29, KAUS-33, KAUS-38 and KAUS-39 with ECA as a positive control using UPLC-MS analysis as previously described^20 with an Acquity H-Class UPLC which is connected to a PDA detector and an Acquity TQD detector. The column used was an Acquity UPLC BEH C18 1.7 μm, 2.1×50 mm, with a Vanguard pre-column attached. Solvent A consisted of water with 0.02% formic acid, while solvent B consisted of 90:10 acetonitrile:water with 0.02% formic acid. A gradient run was performed such that solvent B was increased from 0% B to 100% B from time 0-5 mins, followed by 3 minute wash at 100% B and then a return and re-equilibration at 100% A in the next 4 mins. The flow rate was maintained at 0.5 ml/min throughout the run. 2 μL of sample was injected per run. […] The eluent was then introduced into the TQD detector. The TQD detector was set at positive ionization mode with a capillary voltage of 3.20 kV, cone voltage of 20 V, extractor voltage of 1 V, and RF lens voltage of 0.1 V. The source temperature was set at 150° C., while the desolvation temperature was set at 350° C. and the desolvation and cone gas flows were set at 650 and 50 L/hr respectively. Scans were made from 100-700 m/z with scan duration of 0.5 seconds to obtain mass spectra at different time points.

T1 sequence (P69905 2-142 limits assumed): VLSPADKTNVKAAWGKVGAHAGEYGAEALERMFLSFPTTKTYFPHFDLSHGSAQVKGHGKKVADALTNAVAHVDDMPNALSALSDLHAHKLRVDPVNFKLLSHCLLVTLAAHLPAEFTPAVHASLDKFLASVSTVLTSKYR
T1 sequence (P68871 2-147 limits assumed): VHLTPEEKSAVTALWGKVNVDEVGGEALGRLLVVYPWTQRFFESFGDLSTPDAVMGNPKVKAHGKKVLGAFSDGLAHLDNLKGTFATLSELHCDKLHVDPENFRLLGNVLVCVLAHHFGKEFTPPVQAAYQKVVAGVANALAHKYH
T2 sequence (P69905 2-142 limits assumed): as the sequence (P69905 2-142 limits assumed) above
T2 sequence (P68871 2-147 limits assumed): as the sequence (P68871 2-147 limits assumed) above

Row | Compound | OEC effect (increase of Hb affinity for oxygen, left shift) (Hb in normal whole blood; 1 mM compound) | OEC effect (increase of Hb affinity for oxygen, left shift) (Hb in normal whole blood; 2 mM compound) | Effect on Hb affinity for oxygen in cell free Hb (in words) [1] | Reduction (inhibition) of RBC sickling [2] | melting point | Ratio of Cpd/Adduct (Adduct peak) [3] | Ratio of Cpd/Adduct (Compound peak) [3] | Reactivity with L-Cys (adduct share) [3] | inhibition at 2000 µM [2]
1 | O=C(O)CCCOc1ccc(C(=O)/C=C/c2ncc[nH]2)cc1Cl [KAUS-15, reference compound] | 1% | 7% | significantly more potent effect with cell free Hb than with whole blood | 6% | – | – | – | – | –
2 | COc1cc(C(=O)/C=C/c2ncc[nH]2)ccc1O [KAUS-36, (E)-1-(4-hydroxy-3-methoxyphenyl)-3-(1H-imidazol-2-yl)prop-2-en-1-one] | – | – | – | – | > 250 °C (dec.) | – | – | – | –
3 | O=C(/C=C/c1ncc[nH]1)c1ccccc1 [KAUS-28, (E)-3-(1H-imidazol-2-yl)-1-phenylprop-2-en-1-one] | – | – | – | – | – | 6.9 | 93.1 | – | –
4 | COc1ccc(C(=O)/C=C/c2ncc[nH]2)cc1OC [KAUS-39, (E)-1-(3,4-dimethoxyphenyl)-3-(1H-imidazol-2-yl)prop-2-en-1-one] | – | – | – | – | 222 to 223 °C | 27.2 | 72.8 | 27.2% | 5%
5 | O=C(/C=C/c1ncc[nH]1)c1ccc(O)cc1 [KAUS-32, (E)-1-(4-hydroxyphenyl)-3-(1H-imidazol-2-yl)prop-2-en-1-one] | – | – | – | – | 250 to 253 °C | – | – | – | –
6 | COc1ccc(C(=O)/C=C/c2ncc[nH]2)cc1 [KAUS-38, (E)-3-(1H-imidazol-2-yl)-1-(4-methoxyphenyl)prop-2-en-1-one] | 8% | 14% | – | – | – | 37.8 | 62.2 | 37.8% | 18%
7 | O=C(/C=C/c1ncc[nH]1)c1ccc(OC2CCCCO2)cc1 (stereo not shown) [KAUS-33, (E)-3-(1H-imidazol-2-yl)-1-(4-((tetrahydro-2H-pyran-2-yl)oxy)phenyl)prop-2-en-1-one] | 9.9% | 16.5% | – | – | – | 24.8 | 75.2 | 24.8% | –
8 | C=C(CC)C(=O)c1ccc(OCC(=O)O)c(Cl)c1Cl [Ethacrynic Acid, ethacrynic acid, reference compound] | 6.1% | 21.3% | – | – | – | 96.3 | 3.7 | – | 18%
9 | COc1cccc(C(=O)/C=C/c2ncc[nH]2)c1 [KAUS-29, (E)-3-(1H-imidazol-2-yl)-1-(3-methoxyphenyl)prop-2-en-1-one] | 8% | 14% | – | – | – | 2.1 | 97.9 | – | –
10 | O=C(/C=C/c1ncc[nH]1)c1ccc(OCc2ccccc2)cc1 [KAUS-34, (E)-1-(4-(benzyloxy)phenyl)-3-(1H-imidazol-2-yl)prop-2-en-1-one] | – | – | – | – | > 250 °C (dec.) | – | – | – | –
